# Where two headings read alike, the source gives them in different places.
# What was measured:
# in vitro [1] = conditions: human, microsomes
# [2] = test system: Leishmania infantum MHOM/MA(BE)/67/ITMAP263 intracellular amastigotes; assay: microbe, parasite or virus in culture; conditions: Macrophage, in Mus musculus
# [3] = test system: primary peritoneal mouse macrophages (PMM); assay: cells; conditions: Macrophage
# [4] = metabolite ID, peak area of substrate or metabolite
# physchem [5] = conditions: HPLC, Ascentis Express RP Amide column
# [6] = metabolite ID, peak area of substrate or metabolite; remark: listed apart in the source
# in vitro [7] = conditions: plasma
# [8] = 6 h incubation in mouse plasma
# [9] = versus the preceding analogue
# in vitro [10] = conditions: mouse, microsomes; for microsomal CLint at 0.5 h, 0.5 µM: pH 7.4, Microsome Clint,u Mouse, Table 2, intrinsic in vitro clearance, liver microsomes; for microsomal CLint at 0.5 μM: mouse liver microsomes
# physchem [11] = assay: physchem
# [12] = test system: Leishmania infantum (MHOM/MA/67/ITMAP-263) intracellular amastigotes in THP-1; assay: microbe, parasite or virus in culture
# in vitro [13] = conditions: human; for CC50 at 120 h: THP-1 cells differentiated with PMA
# [14] = test system: axenic L. don. amastigotes (MHOM/SD/62/1S-CL2, LdBOB); assay: microbe, parasite or virus in culture; conditions: Leishmania donovani, read-out: L. donovani MHOM/SD/62/1SCL2D axenic-cidal amastigotes IC50
# in vitro [15] = conditions: human, HepG2 cells
# [16] = test system: L. donovani MHOM/SD/62/1SCL2D intracellular amastigotes; assay: microbe, parasite or virus in culture; conditions: Leishmania donovani, read-out: L. donovani MHOM/SD/62/1SCL2D intracellular amastigotes IC50
# [17] = test system: Trypanosoma cruzi, Tulahuen CL2, beta-galactosidase strain; assay: microbe, parasite or virus in culture
# in vitro [18] = conditions: human
# Vero = assay: cells; conditions: Chlorocebus sabaeus, read-out: Vero IC50
# in vitro [19] = conditions: human, HFF-1 cells
# in vitro [20] = conditions: PAMPA
# in vitro [21] = conditions: human, HepG2 cells; remark: listed apart in the source
# [22] = test system: Leishmania infantum MHOM/MA(BE)/67/ITMAP263 intracellular amastigotes; conditions: intracellular amastigotes in PMM; geometric mean of a minimum of two experiments ± standard error
# [23] = test system: Leishmania infantum (MHOM/MA/67/ITMAP-263) intracellular amastigotes in THP-1; conditions: THP-1 host cells, 120 hours
# THP-1 cells = conditions: 120 hours, Alamar Blue
# [24] = test system: primary peritoneal mouse macrophages (PMM); conditions: cytotoxicity to PMM; geometric mean of a minimum of two experiments ± standard error
# [25] = pH 7.4, Microsome Clint,u Human, Table 2, intrinsic in vitro clearance, liver microsomes
# [26] = read-out: L. inf. pIC50, intracellular amastigotes in PMM (converted), geometric mean of a minimum of two experiments ± standard error
# [27] = read-out: PMM pIC50 (converted)
# [28] = pH 7.4, elog D, HPLC measured log D, pH 7.4
# [29] = pH 7.4, HLM CLint, human liver microsomes
# [30] = read-out: L. Inf. pIC50 (converted)
# [31] = read-out: L. infantum MHOM/MA(BE)/67/ITMAP263 intracellular amastigotes IC50
# [32] = PBS, pH 7.4, aqueous buffer, kinetic from dmso stock
# [33] = MRC5, read-out: T. cruzi Tulahuen C4 (LacZ) IC50
# [34] = pH 7.4, HLM CLint (uL/min/mg), human liver microsomes
# [35] = read-out: L. Inf. pIC50, from L. infantum intracellular amastigote IC50 (converted)
# [36] = read-out: L. infantum MHOM/MA(BE)/67/ITMAP263 intracellular amastigotes IC50 (uM), intracellular amastigotes
# [37] = MRC5, read-out: T. cruzi Tulahuen C4 (LacZ) IC50 (uM)
smiles,measurement,setting,value
COc1ccc(OC)c(S(=O)(=O)N(C)Cc2ccc(F)cc2)c1 [Compound 37],microsomal CLint at 0.5 μM,in vitro [1]; [25],414 µL/min/mg
same,IC50,[2]; [26],11.7 µM
same,IC50,[3]; [27],> 64.6 µM
same,Area% Mouse,[4],76.1%
same,chromatographic logD,physchem [5]; [28],3.7
same,Area% Human,[6],22.5%
COc1ccc(C(=O)N2CCOCC2)cc1S(=O)(=O)N(Cc1ccc(F)cc1)Cc1ccc(C(F)(F)F)nc1 [Compound 46],"microsomal CLint at 0.5 h, 0.5 µM",in vitro [1]; [25],265 µL/min/mg
same,fraction unbound,in vitro [7]; Plasma protein binding (PPB),0.041
same,Mouse plasma stability (6 h),[8],22 % remaining
same,improvement in the in vitro mouse clearance,[9],4 fold
same,IC50,[2]; [26],1.74 µM
same,IC50,[3]; [27],> 64.6 µM
same,chromatographic logD,physchem [5]; [28],3.7
same,"microsomal CLint at 0.5 h, 0.5 µM",in vitro [10],534 µL/min/mg
same,solubility kinetic,"physchem [11]; aqueous medium, pH 2.0, pH 2",3.8 µg/mL
same,solubility kinetic,"physchem [11]; aqueous medium, pH 7.4, pH 7.4",3.2 µg/mL
COc1ccc(C(=O)N2CCOCC2)cc1S(=O)(=O)N(Cc1ccccc1)Cc1cnc(C(F)(F)F)nc1 [Compound 47],"microsomal CLint at 0.5 h, 0.5 µM",in vitro [1]; [25],73 µL/min/mg
same,fraction unbound,in vitro [7]; Plasma protein binding (PPB),0.117
same,Mouse plasma stability (6 h),[8],42 % remaining
same,IC50,"[12]; THP-1, 120 h, read-out: Intracellular activity pIC50 L. inf. in THP-1 (converted)",> 64.6 µM
same,improvement in the in vitro mouse clearance,[9],4 fold
same,IC50,[2]; [26],4.47 µM
same,IC50,[3]; [27],> 64.6 µM
same,IC50 at 120 h,in vitro [13]; PMA-differentiated THP-1 cells,> 64.6 µM
same,chromatographic logD,physchem [5]; [28],3.5
same,"microsomal CLint at 0.5 h, 0.5 µM",in vitro [10],152 µL/min/mg
same,solubility kinetic,"physchem [11]; aqueous medium, pH 2.0, pH 2",11.3 µg/mL
same,solubility kinetic,"physchem [11]; aqueous medium, pH 7.4, pH 7.4",6.2 µg/mL
CCCCCOc1cc(C)c(C)cc1S(=O)(=O)NC1CCCC1 [DNDI0002550647],microsomal CLint at 0.5 μM,in vitro [1]; [29],567 µL/min/mg
same,IC50,[14],12 µM
same,CC50,in vitro [15],> 50 µM
same,IC50,[2]; [30],1.05 µM
same,IC50,[2]; [31],1.05 µM
same,IC50,[3]; read-out: PMM IC50,45.2 µM
same,CC50 at 120 h,in vitro [13],> 50 µM
same,IC50,[16],13 µM
same,microsomal CLint at 0.5 μM,"in vitro [10]; pH 7.4, MLM CLint",416 µL/min/mg
same,solubility kinetic,physchem [11]; [32],0.56 µg/mL
same,IC50,[17]; [33],7.86 µM
same,KS PBS - pH 2,,0.74 ug/mL
same,CC50 at 3 days,in vitro [18],37 µM
CCCCCOc1cc(C)c(Cl)cc1S(=O)(=O)NCc1cccs1 [DNDI0002572712],microsomal CLint at 0.5 μM,in vitro [1]; [29],693 µL/min/mg
same,IC50,[14],4.4 µM
same,CC50,in vitro [15],40 µM
same,IC50,[2]; [30],0.851 µM
same,IC50,[2]; [31],0.85 µM
same,IC50,[3]; read-out: PMM IC50,40.3 µM
same,CC50 at 120 h,in vitro [13],> 50 µM
same,IC50,[16],12 µM
same,microsomal CLint at 0.5 μM,"in vitro [10]; pH 7.4, MLM CLint",693 µL/min/mg
same,solubility kinetic,physchem [11]; [32],0.39 µg/mL
same,IC50,[17]; [33],12.2 µM
same,KS PBS - pH 2,,0.39 ug/mL
same,CC50 at 3 days,in vitro [18],44.1 µM
COc1cc(S(=O)(=O)N(Cc2ccccc2)Cc2ccccc2)c(OC)cc1C [DNDI0002644002],microsomal CLint at 0.5 μM,in vitro [1]; [29],920 µL/min/mg
same,IC50,[14],1.5 µM
same,CC50,in vitro [15],39 µM
same,IC50,[2]; [30],0.537 µM
same,IC50,[2]; [31],0.54 µM
same,IC50,[3]; read-out: PMM IC50,> 64 µM
same,CC50 at 120 h,in vitro [13],> 50 µM
same,IC50,[16],12 µM
same,microsomal CLint at 0.5 μM,"in vitro [10]; pH 7.4, MLM CLint",1080 µL/min/mg
same,solubility kinetic,physchem [11]; [32],0.41 µg/mL
same,IC50,[17]; [33],> 64 µM
same,KS PBS - pH 2,,0.41 ug/mL
same,CC50 at 3 days,in vitro [18],> 64 µM
O=S(=O)(c1ccc2nncn2c1)N(Cc1cccc(F)c1)c1ccc2c(c1)OCO2 [DNDI0003321886],CC50,in vitro [15],> 50 µM
same,CC50 at 120 h,in vitro [13],> 50 µM
same,IC50,Vero,35 µM
same,IC50,[16],> 50 µM
COc1ccc(CN(c2ccc3c(c2)OCO3)S(=O)(=O)c2ccc3nncn3c2)cc1 [DNDI0003321888],CC50,in vitro [15],> 50 µM
same,CC50 at 120 h,in vitro [13],> 50 µM
same,IC50,Vero,> 50 µM
same,IC50,[16],> 50 µM
COc1ccc(S(=O)(=O)N2Cc3ccccc3CC2C(=O)NCc2ccccc2)cc1 (stereo not drawn) [DNDI0003338988],CC50,in vitro [15],> 50 µM
same,CC50 at 120 h,in vitro [13],> 50 µM
same,IC50,Vero,29 µM
same,IC50,[16],> 50 µM
COc1ccc(C2c3cccn3CCN2S(=O)(=O)c2ccc3ccccc3c2)cc1 (stereo not drawn) [DNDI0003355838],CC50,in vitro [15],> 50 µM
same,CC50 at 120 h,in vitro [13],> 50 µM
same,IC50,Vero,> 50 µM
same,IC50,[16],> 50 µM
COc1ccc(C(=O)N2CCOCC2)cc1S(=O)(=O)N(Cc1ccc(F)cc1)Cc1ccc(C(F)(F)F)nc1 [DNDI0003389644],microsomal CLint at 0.5 μM,in vitro [1]; [34],190 µL/min/mg
same,fraction unbound,in vitro [7]; PPB (%),0.0409
same,IC50,[2]; [35],1.74 µM
same,IC50,[2]; [36],1.74 µM
same,IC50,[3]; read-out: PMM IC50 (uM),> 64 µM
same,CC50,in vitro [19],36.9 µM
same,microsomal CLint at 0.5 μM,"in vitro [10]; pH 7.4, MLM CLint (uL/min/mg)",163 µL/min/mg
same,Papp,in vitro [20],10 ×10⁻⁶ cm/s
same,solubility kinetic,physchem [11]; [32],3.32 µg/mL
same,IC50,[17]; [37],3.39 µM
same,CC50,in vitro [21],> 64 µM
same,KS PBS - pH 2 (ug/mL),,3.79 ug/mL
same,CC50 at 3 days,in vitro [18],> 64 µM
COc1ccc(C(=O)N2CCOCC2)cc1S(=O)(=O)N(Cc1ccccc1)Cc1cnc(C(F)(F)F)nc1 [DNDI0003425509],microsomal CLint at 0.5 μM,in vitro [1]; [34],76 µL/min/mg
same,fraction unbound,in vitro [7]; PPB (%),0.117
same,IC50,"[12]; THP-1, read-out: L. infantum MHOM/MA/67/ITMAP263 intracellular amastigotes THP-1 cells IC50 (uM)",> 64 µM
same,IC50,[2]; [35],4.37 µM
same,IC50,[2]; [36],4.35 µM
same,IC50,[3]; read-out: PMM IC50 (uM),> 64 µM
same,CC50 at 120 h,in vitro [13],> 64 µM
same,CC50,in vitro [19],> 64 µM
same,chromatographic logD,"physchem [5]; pH 7.4, eLogD, experimental",3.1
same,microsomal CLint at 0.5 μM,"in vitro [10]; pH 7.4, MLM CLint (uL/min/mg)",78 µL/min/mg
same,Papp,in vitro [20],15.2 ×10⁻⁶ cm/s
same,solubility kinetic,physchem [11]; [32],6.22 µg/mL
same,IC50,[17]; [37],7.07 µM
same,CC50,in vitro [21],> 64 µM
same,KS PBS - pH 2 (ug/mL),,11.3 ug/mL
same,CC50 at 3 days,in vitro [18],> 64 µM
COc1ccc(OC)c(S(=O)(=O)N(Cc2ccc(F)cc2)Cc2oc(C)nc2C)c1 [SI51],L. inf. pIC50,[22],5.63±0.04
same,Intracellular activity pIC50 L. inf. in THP-1,[23],4.51±0.03
same,pIC50 Cytotoxicity THP-1,THP-1 cells,< 4.19
same,PMM pIC50,[24],< 4.19
COc1ccc(S(C)(=O)=O)cc1S(=O)(=O)N(Cc1ccccc1)CC(C)(C)C [SI52],L. inf. pIC50,[22],5.56±0.28
same,Intracellular activity pIC50 L. inf. in THP-1,[23],4.32±0.01
same,pIC50 Cytotoxicity THP-1,THP-1 cells,< 4.19
same,PMM pIC50,[24],< 4.19

# Reference: article PMC8126888 (RSC Medicinal Chemistry, 2020)
